Data as given in patent publication US11389456B2, “Compounds and methods for treating oxalate-related diseases” (OxaluRx, Inc., priority 2018, dated 2022).
Values after ≈ are worked out from the molar mass of the structure shown.

Experiments:
[1] = biological target: recombinant full-length human hydroxyacid oxidase 1 (HAO1), the equivalent of hGOX (Homo sapiens (Human), UniProt Q9UJM8); experiment: In-vitro human glycolate oxidase (hGOX) assay (Amplex red/HRP fluorescence); format: biochemical
Description: Biological Activity Assay: In-Vitro Human Glycolate Oxidase (hGOX) Assay
The in-vitro glycolate oxidase assay was performed using recombinant full-length human hydroxyacid oxidase 1 (HAO1), the equivalent of hGOX. […] Purified HAO1 was dissolved in assay buffer consisting of 10 mM NaCl, 110 mM KCl, 2 mM MgCl2, 50 mM HEPES (pH 7.4) and 0.01% Triton™ X-100.

[2] = Solubility in aqueous solution (deionized, distilled water); format: physicochemical; details: kinetic from dmso stock, 1% DMSO, read-out: Aqueous Solubility H2O
Description: (§1) For testing compound solubility in phosphate buffered saline (PBS), compound stock solutions were prepared at 10 mM in 100% DMSO. For testing in aqueous solution, the phosphate buffer was replaced with deionized, distilled water. Eleven grams Na2HPO4 (FW: 141.96 g/mol) and 3.5 g NaH2PO4.2H2O (FW: 156.03 g/mol) was added to 1 L Milli-Q water and adjusted to a pH to 7.4 with phosphoric acid or sodium hydroxide. For incubation, media were preheated to 37° C. Eight μL aliquots of reference and test compound stock solutions (10 mM) were added into 792 μL of 100 mM phosphate buffer (pH 7.4). The final DMSO concentration was 1%. Sample tubes were shaken for 1 hour at 1000 rpm at room temperature.
(§2) The calibration curve was prepared with 300-μM spiking solution (SS) in MeOH:acetonitrile (4:1). Six μL of 10 mM compound was added in 194 μL MeOH/acetonitrile (4:1). Samples were centrifuged for 10 minutes at 12,000 rpm to precipitate undissolved particles. Supernatants were transferred to a new tube or plate and dilute 10-fold and 100-fold with 100 mM buffer. Samples were prepared for LC-MS/MS analysis by adding 5 μL each sample (undiluted, 10-fold diluted, and 100-fold diluted) and 5 μL of standard curve samples to 95 μL of acetonitrile (containing internal standard).

[3] = Solubility in phosphate buffered saline (PBS), pH 7.4; format: physicochemical; details: phosphate buffer (PBS), aqueous buffer, kinetic from dmso stock; phosphate buffered saline pH 7.4, 1% DMSO, 1 hour shaking at room temperature
Description: as §1, §2

[4] = Stability in human plasma; format: in vitro ADME; details: read-out: Plasma Stability T1/2
Description: Stability in Human Plasma.
Stock compounds were prepared for testing the stability in human plasma. First, 0.05 M sodium phosphate and 0.07 M NaCl buffer, pH 7.4, were pre-heated. In deionized water, 14.505 g/L Na2HPO 12H2O, 1.483 g/L NaH2PO4.2H2O and 4.095 g/L NaCl were dissolved. The basic solution was titrated with the phosphoric acid to pH 7.40. Frozen plasma was quickly thawed at 37° C. The plasma was centrifuged at 3,000 rpm for 8 minutes to remove clots, then pipetted and pooled as the plasma stock for the experiment. Only plasma within the range of pH 7.4 to pH 8 was used. If higher than pH 8, the plasma was discarded. The initial pH of the plasma was not adjusted to pH 7.4 with acid or by bubbling with carbon dioxide. By using a 5% carbon dioxide incubator and PBS buffer, a pH of 7.4 will be reached after the 4-hour equilibrium dialysis time. Plasma was iced until use.
Spiking solution A with 0.5 mM testing compounds was prepared by adding 10 μL of 10 mM test compounds stock solution to 190 μL DMSO. Spiking solution B with 0.02 mM testing compound was prepared by adding 40 μL of spiking solution A to 960 μL of […] sodium phosphate buffer with 0.5% BSA. The plasma and spiking solution B were prewarmed at 37° C. for 5 minutes. Ten μL of pre-warmed spiking solution B was added into the wells designated for all the time points (5, 15, 30, 45, 60 minutes). For the 0-minute timepoint, 400 μL acetonitrile containing internal standard were added to the wells of 0-minute plate and then 90 μL plasma were added. For the other timepoints, 90 μL of pre-warmed plasma were added into the wells (0, 5, 15, 30, 45, 60 minutes) and the timing was started. At 5, 15, 30, 45, 60 minutes, 400 μL acetonitrile containing internal standard were added to the wells of corresponding plates, respectively, to stop the reaction. After quenching, the plates were shaken on a vibrator (IKA, MTS 2/4) for 10 minutes at 600 rpm and then centrifuged at 5594×g for 15 minutes (Thermo Multifuge×3R). Fifty μL of supernatant was transferred from each well into a 96-well sample plate containing 50 μL ultra-pure water (Millipore, ZMQS50F01) for LC/MS analysis.

[5] = Protein binding (plasma equilibrium dialysis); format: in vitro ADME; details: 5 hours at 37° C.; for fraction unbound at 5 h, 1 μM: read-out: Protein Binding Fraction Bound (converted)
Description: For testing protein binding of stock compounds solubilized in DMSO, spiking solutions of test and reference compounds were prepared. Solution A (0.5 mM) was prepared by adding 10 μL of 10 mM stock solution into 190 μL of DMSO. Solution B (0.02 mM) was prepared by adding 8 μL of Solution A into 192 μL of 0.05 M sodium phosphate buffer. The final DMSO concentration in Solution B was 4%.
To prepare test and reference compounds in plasma, a 96-well plate with 380 μL aliquots of plasma in the wells designed for plasma and buffer, respectively. Twenty μL of Solution B (0.02 mM of test and reference compounds) were spiked into the pre-loaded plasma in the 96-well plate. The final test concentration is 1 μM containing 0.2% DMSO.
For dialysis sample loading a plasma again buffer system was prepared by applying aliquots of 100 μL of blank dialysis buffer to the receiver side of dialysis chambers and then applying aliquots of 100 μL of the plasma spiked with test and reference compounds to the donor side of the dialysis chamber. A 25-μL aliquot of the plasma spiked with test and reference compounds was added into a 96-well sample preparation plate as T″0″ plasma samples. Aliquots were mixed with the same volume of blank buffer (50:50, volume:volume). Samples were quenched with 200 μL of acetonitrile containing internal standard. The dialysis block was covered and a shaken at 60 rpm for 5 hours at 37° C.
After a 5-hour incubation, dialyzed samples were prepared from 25-μL aliquots from both the donor and receiver sides of the dialysis apparatus into new sample preparation plates. The aliquots were mixed with same volume of opposite matrixes. The samples were quenched with 200 μL acetonitrile containing internal standard. All 0-hour and 5-hour samples were vortexed at 600 rpm for 10 min followed by centrifugation at 5594×g for 15 minutes (Thermo Multifuge×3R). Fifty μL of the supernatants were transferred to anew 96-well plate and mixed with 50 μL Milli-Q water. The sample plate was covered and frozen at −20° C. until LC/MS/MS analysis.

[6] = Metabolic stability in human liver microsomal preparation; format: in vitro ADME; details: pH 7.4, human liver microsomes, NADPH, 37° C.; for half-life at 1 μM: 0-45 min, read-out: Metabolic Stability t1/2
Description: For evaluating the metabolic stability in human liver microsomal preparation, three buffers were prepared. Buffer A had 1.0 L of 0.1 M monobasic potassium phosphate buffer containing 1.0 mM EDTA. Buffer B had 1.0 L of 0.1 M dibasic potassium phosphate buffer containing 1.0 mM EDTA. Buffer C had 0.1 M potassium phosphate buffer, 1.0 mM EDTA, adjusted to a pH 7.4 via titrating 700 mL buffer B with buffer A. Reference compound (ketanserin) and test compounds spiking solutions (500 μM) were prepared by adding 10 μL of 10 mM DMSO stock compound solution into 190 μL acetonitrile. A volume of 1.5 μL 500 μM spiking solution and 18.75 μL 20 mg/mL human liver microsomes were added into 479.75 μL of Buffer C on ice. A stock solution of 6 mM NADPH was prepared by dissolving NADPH into Buffer C.
Wells on an assay plate were iced and filled with 30 μL 1.5-μM spiking solution containing 0.75 mg/mL microsomes solution and designated for different timepoints (0-, 5-, 15-, 30-, 45-min). For the 0-min timepoint, 135 μL acetonitrile containing internal standard were added followed by 15 μL of NADPH stock solution (6 mM). All other plates were preincubated at 37° C. for 5 minutes and 15 μL NADPH stock solution (6 mM) were added to the plates to start the reaction. At 5-min, 15-min, 30-min, and 45-min, 135 μL acetonitrile containing internal standard were added to the wells of corresponding plates, respectively, to stop the reaction. After quenching, the plates were shaken on the vibrator (IKA, MTS 2/4) for 10 min at 600 rpm and then centrifuged at 5594×g for 15 minutes (Thermo Multifuge×3R). Fifty μL supernatant from each well were transported into a 96-well sample plate containing 50 μL of ultra-pure water (Millipore, ZMQS50F01) for LC/MS analysis.

recombinant full-length human hydroxyacid oxidase 1 (HAO1), the equivalent of hGOX, sequence (Q9UJM8 whole entry): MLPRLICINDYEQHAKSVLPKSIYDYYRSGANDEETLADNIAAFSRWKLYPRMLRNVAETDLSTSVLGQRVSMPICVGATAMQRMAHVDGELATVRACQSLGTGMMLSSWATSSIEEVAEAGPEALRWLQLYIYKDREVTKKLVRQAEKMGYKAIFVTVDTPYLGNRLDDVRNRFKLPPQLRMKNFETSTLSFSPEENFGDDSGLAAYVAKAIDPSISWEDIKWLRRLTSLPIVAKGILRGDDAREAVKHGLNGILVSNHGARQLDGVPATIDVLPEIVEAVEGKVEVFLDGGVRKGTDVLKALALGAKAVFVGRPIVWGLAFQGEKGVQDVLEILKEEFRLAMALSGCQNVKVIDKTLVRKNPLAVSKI

| IC50 [1] [nM] | solubility at 1 h [2] [µM] | solubility at 1 h [3] [µM] | half-life at 2 μM [4] [h] | recovery at 5 h, 1 μM [5] [%] | CLint scaled at 1 μM [6] [mL/min/kg] | half-life at 1 μM [6] [h] | fraction unbound at 5 h, 1 μM [5] | SMILES |
| --- | --- | --- | --- | --- | --- | --- | --- | --- |
| 30 | 108 (≈ 31 µg/mL) | 96.5 (≈ 27.7 µg/mL) | 3.11 | 101 | 26.4 | 1.1 |  | O=C(O)c1[nH]nnc1Oc1ccc(C2CCCCC2)cc1 [Example I-266, 5-(4-Cyclohexylphenoxy)-1H-1,2,3-triazole-4-carboxylic acid] |
| 13000 | 83.4 (≈ 27.6 µg/mL) | 97.9 (≈ 32.4 µg/mL) | 0.985 | 109 | 7.08 | 4.09 |  | O=C(O)c1nn[nH]c1Oc1cccc(-c2ccc3ccccc3c2)c1 [Example I-178, 5-(3-(Naphthalen-2-yl)phenoxy)-1H-1,2,3-triazole-4-carboxylic acid] |
| 20 | 82.5 (≈ 21.4 µg/mL) | 85.7 (≈ 22.2 µg/mL) | 1.72 | 109 | 13.4 | 2.16 | 0.002 | CC(C)=Cc1ccc(Oc2[nH]nnc2C(=O)O)cc1 [Example I-287, 5-(4-(2-Methylprop-1-en-1-yl)phenoxy)-1H-1,2,3-triazole-4-carboxylic acid] |
| 33 | 98.4 (≈ 25.7 µg/mL) | 104 (≈ 27.1 µg/mL) | 1.22 | 114 | 11.3 | 2.55 | 0.002 | CC(C)Cc1ccc(Oc2[nH]nnc2C(=O)O)cc1 [Example I-299, 5-(4-Isobutylphenoxy)-1H-1,2,3-triazole-4-carboxylic acid] |
| 12 | 45.7 (≈ 15.1 µg/mL) | 89.3 (≈ 29.6 µg/mL) | 1.12 | 99.3 | 3.07 | 9.43 |  | O=C(O)c1nn[nH]c1Oc1ccc(-c2ccc3ccccc3c2)cc1 [Example I-177, 5-(4-(Naphthalen-2-yl)phenoxy)-1H-1,2,3-triazole-4-carboxylic acid] |
| 69 | 110 (≈ 29.8 µg/mL) | 121 (≈ 32.8 µg/mL) | 1.25 | 117 | 2.21 | 13.1 |  | O=C(O)c1nn[nH]c1Sc1ccc2ccccc2c1 [Example I-031, 5-(Naphthalen-2-ylthio)-1H-1,2,3-triazole-4-carboxylic acid] |
| 4 | 115 (≈ 37.4 µg/mL) | 111 (≈ 36.2 µg/mL) | 6.68 | 105 | 5.47 | 5.3 | 0.007 | O=C(O)c1nn[nH]c1Oc1ccc(-c2ccc3c(c2)OCO3)cc1 [Example I-304, 5-(4-(Benzo[d][1,3]dioxol-5-yl)phenoxy)-1H-1,2,3-triazole-4-carboxylic acid] |
| 227 | 106 (≈ 31.5 µg/mL) | 122 (≈ 36.4 µg/mL) | 0.755 | 126 | 10.1 | 2.87 |  | O=C(O)c1nn[nH]c1Sc1ccc(-c2ccccc2)cc1 [Example I-128, 5-([1,1′-Biphenyl]-4-ylthio)-1H-1,2,3-triazole-4-carboxylic acid] |
| 23 | 83.1 (≈ 23.4 µg/mL) | 95.7 (≈ 26.9 µg/mL) | 0.747 | 100 | 3.04 | 8.78 |  | O=C(O)c1nn[nH]c1Oc1ccc(-c2ccccc2)cc1 [Example I-150, 5-([1,1′-Biphenyl]-4-yloxy)-1H-1,2,3-triazole-4-carboxylic acid] |
| 8 | 112 (≈ 40.4 µg/mL) | 116 (≈ 41.9 µg/mL) | 6.19 | 95.5 | 1.7 | 17 |  | CS(=O)(=O)c1ccc(-c2ccc(Oc3[nH]nnc3C(=O)O)cc2)cc1 [Example I-167, 5-((4′-(methylsulfonyl)-[1,1′-biphenyl]-4-yl)oxy)-1H-1,2,3-triazole-4-carboxylic acid] |

| SMILES | IC50 [1] [nM] | solubility at 1 h [2] [µM] | solubility at 1 h [3] [µM] | half-life at 2 μM [4] [h] | recovery at 5 h, 1 μM [5] [%] | CLint scaled at 1 μM [6] [mL/min/kg] | half-life at 1 μM [6] [h] | fraction unbound at 5 h, 1 μM [5] |
| --- | --- | --- | --- | --- | --- | --- | --- | --- |
| O=C(O)c1[nH]nnc1Oc1ccc(Cl)c(Cl)c1 [Example I-050, 5-(3,4-Dichlorophenoxy)-1H-1,2,3-triazole-4-carboxylic acid] | 12 | 102 (≈ 28 µg/mL) | 120 (≈ 33 µg/mL) | 2.35 | 71.2 | 2.47 | 11.7 |  |
